Experimental data published in US20110130357A1 (priority 2008, published 2011).
Values after ≈ are worked out from the molar mass of the structure shown.

Columns and labels:
[1] = test system: Staphylococcus aureus ATCC 25923; format: cell-based; conditions: 35° C., 12-18 hrs
[2] = test system: Pseudomonas aeruginosa (ATCC 27853); format: cell-based; conditions: 35° C., 12-18 hrs
[3] = test system: F. graminearum; format: cell-based, Fusarium graminearum; conditions: PDB+casamino acids containing 0.02, 0.08 or 0.2% (v/v) surfactant
[4] = test system: Enterococcus faecalis (ATCC29212); format: cell-based; conditions: 35° C., 12-18 hrs
[5] = test system: Klebsiella pneumoniae (ATCC 138883); format: cell-based; conditions: 35° C., 12-18 hrs
[6] = test system: screened fungi; test: MIC against screened fungi (all species); format: cell-based
[7] = test system: Ulocladium sp.; test: MIC against screened fungi
[8] = test system: F. graminearum isolate B-4-5A; format: in vivo, Fusarium graminearum on wheat (Alsen and Frontana cultivars); conditions: 30 μg/mL aminoglycoside mixed in inoculum, wheat leaves
[9] = test system: Fusarium oxysporium; test: MIC against screened fungi
[10] = test system: wheat seedlings; conditions: in vivo
[11] = test system: F. graminearum; format: cell-based, Fusarium graminearum; conditions: for lethality to F. graminearum: in the range of 500 to 1 μg/mL
[12] = test system: Escherichia coli TG1 (pET28a); format: cell-based; conditions: 35° C., 12-18 hrs
[13] = test system: selected bacterial pathogens; test: Antibacterial MIC over the selected bacterial pathogens; format: cell-based; conditions: read-out: Corresponding MIC values (span over the tested bacteria)
Procedure: The minimum inhibitory concentration of M038 was determined for selected bacterial pathogens. For purposes of the experiments discussed in this paragraph, the minimum inhibitory concentration (MIC) is defined as the minimum concentration of compound needed to inhibit the growth of bacteria. A solution of selected bacteria was inoculated Trypticase Soy broth at 35° C. and incubated for 1-2 hours. Following incubation, the bacterial concentrations were determined, and diluted with broth, if necessary, to an absorption value of 0.08 to 0.1 at 625 nm. The adjusted inoculated medium (100 μL) was diluted with 10 ml broth, and then applied to a 96-well microtiter plate (50 μL). A series of solutions (50 μL each in 2-fold dilution) of M038 was added to the testing wells. The 96-well plate was incubated at 35° C. for 12-18 hrs. The MIC results were repeated at least three times.

Q: `CCCCCCCCO[C@H]1[C@H](O)[C@@H](O)[C@@H](O[C@@H]2[C@@H](O)[C@H](O[C@H]3O[C@H](CN)[C@@H](O)[C@H](O)[C@H]3N)[C@@H](N)C[C@H]2N)O[C@@H]1C` [JL038, 6-O-(6-Deoxy-4-O-n-octyl-α-D-glucopyranosyl)neamine] was tested. Which “Minimal inhibitory concentration (MIC)” value [1] did it give?
A: 250 μ/mL

Q: What about the “Minimal inhibitory concentration (MIC)” value [2] of the same compound?
A: 250 µg/mL (≈ 431 µM)

Q: What about the “effect of surfactant on in vitro activity (MIC)” value (from here on “effect of surfactant”) [3] of the same compound?
A: did not affect

Q: And the “Minimal inhibitory concentration (MIC)” value [4]?
A: 125-250 μ/mL

Q: And the “Minimal inhibitory concentration (MIC)” value [5]?
A: 250 μ/mL

Q: What about the “MICs for all species of screened fungi” value ([6]; all screened fungi) of the same compound?
A: ≤ 31.3 µg/mL

Q: What about the MIC [7] of the same compound?
A: 7.8 µg/mL (≈ 13.4 µM)

Q: What about the “lesion development / leaf infection by F. graminearum” value (shortened to “lesion development / leaf infection”) [8] of the same compound?
A: prevents lesion development

Q: What about the MIC [9] of the same compound?
A: 7.8 µg/mL (≈ 13.4 µM)

Q: And the “chlorophyll damage (relative chlorophyll content)” value [10]?
A: no chlorophyll damages

Q: And the phytotoxicity [10]?
A: no phytotoxicity

Q: What about the “phytotoxicity (chlorosis in the absence of fungal growth)” value [10] of the same compound?
A: showed phytotoxicity

Q: What about the “phytotoxicity (relative chlorophyll content)” value [10] of the same compound?
A: phytotoxic

Q: And the “MIC (MIC90, concentration required to inhibit 90% of the growth or more)” value ([11]; PDB+casamino acids, 24° C., 72 h, tested range 500 to 1 μg/mL)?
A: 31.3 µg/mL

Q: What about the “Minimal inhibitory concentration (MIC)” value [12] of the same compound?
A: 125-250 μ/mL

Q: For `NCC1O[C@H](OC2C(N)CC(N)[C@@H](OC3OCC(O)[C@@H](O)[C@H]3O)[C@H]2O)C(N)[C@@H](O)[C@@H]1O` (stereo partly drawn) [JL39], which “lethality to F. graminearum” value [11] is on record?
A: not lethal

Q: With `NCC1O[C@H](OC2C(N)CC(N)[C@@H](OC3OCC(O)[C@@H](N)[C@H]3O)[C@H]2O)C(N)[C@@H](O)[C@@H]1O` (stereo partly drawn) [JL40, reference compound] as the compound, how does the “effect of surfactant” value [3] read?
A: did not affect

Q: What about the “lesion development / leaf infection” value [8] of the same compound?
A: did not prevent leaf infection

Q: And the phytotoxicity [10]?
A: phytotoxic

Q: And the “phytotoxicity (relative chlorophyll content)” value [10]?
A: phytotoxic

Q: How did the “lethality to F. graminearum” value [11] turn out when `NCC1O[C@H](OC2C(N)CC(N)[C@@H](OC3O[C@H](CO)C(O)[C@@H](N)[C@H]3O)[C@H]2O)C(O)[C@@H](O)[C@@H]1O` (stereo partly drawn) [kanamycin A, Kanamycin A] was run?
A: not lethal

Q: For `NC[C@H]1O[C@H](O[C@H]2[C@H](O)[C@@H](O[C@H]3O[C@H](CO)[C@@H](O)[C@H](N)[C@H]3O)[C@H](N)C[C@@H]2N)[C@H](N)[C@@H](O)[C@@H]1O` [kanamycin B, Kanamycin B, reference compound], which “effect of surfactant” value [3] is on record?
A: did not affect

Q: What about the MIC [13] of the same compound?
A: 980 to 1950 µg/mL (≈ 2030 to 4030 µM)

Q: And the “antifungal effectiveness against screened fungi” value ([6]; screened fungi of Table 2)?
A: substantially ineffective

Q: What about the “lesion development / leaf infection” value [8] of the same compound?
A: did not prevent leaf infection

Q: And the phytotoxicity [10]?
A: phytotoxic

Q: What about the “phytotoxicity (relative chlorophyll content)” value [10] of the same compound?
A: phytotoxic
